According to patent publication US20230391768A2, “IMIDAZOPYRIDINE DERIVATIVES AND AZA-IMIDAZOPYRIDINE DERIVATIVES AS JANUS KINASE 2 INHIBITORS AND USES THEREOF” (Dana-Farber Cancer Institute, Inc., priority 2018, published 2023):

Columns and labels:
Assay in all cases: KINOMEscan
Type in all cases: binding
[1] = target: AAKI (Homo sapiens (Human), UniProt Q2M2I8); details: read-out: percent of control
Experimental: (§1) In vitro profiling of Compound I-2 (1 μM) was performed using the DiscoveRx KINOMEscan® platform.

[2] = test system: FLT3 (ITD,D835V); details: 1 μM
Experimental: as §1

[3] = target: FLT3-autoinhibited (Homo sapiens (Human), UniProt P36888); details: read-out: percent of control
Experimental: as §1

[4] = target: BMPR1B (Homo sapiens (Human), UniProt O00238); details: read-out: percent of control
Experimental: as §1

[5] = target: BRAF (Homo sapiens (Human), UniProt P15056); details: read-out: percent of control
Experimental: as §1

[6] = target: PIK3CA(E545K) (Homo sapiens (Human), UniProt P42336, E545K); details: read-out: percent of control
Sequence of PIK3CA(E545K) (P42336 whole entry E545K): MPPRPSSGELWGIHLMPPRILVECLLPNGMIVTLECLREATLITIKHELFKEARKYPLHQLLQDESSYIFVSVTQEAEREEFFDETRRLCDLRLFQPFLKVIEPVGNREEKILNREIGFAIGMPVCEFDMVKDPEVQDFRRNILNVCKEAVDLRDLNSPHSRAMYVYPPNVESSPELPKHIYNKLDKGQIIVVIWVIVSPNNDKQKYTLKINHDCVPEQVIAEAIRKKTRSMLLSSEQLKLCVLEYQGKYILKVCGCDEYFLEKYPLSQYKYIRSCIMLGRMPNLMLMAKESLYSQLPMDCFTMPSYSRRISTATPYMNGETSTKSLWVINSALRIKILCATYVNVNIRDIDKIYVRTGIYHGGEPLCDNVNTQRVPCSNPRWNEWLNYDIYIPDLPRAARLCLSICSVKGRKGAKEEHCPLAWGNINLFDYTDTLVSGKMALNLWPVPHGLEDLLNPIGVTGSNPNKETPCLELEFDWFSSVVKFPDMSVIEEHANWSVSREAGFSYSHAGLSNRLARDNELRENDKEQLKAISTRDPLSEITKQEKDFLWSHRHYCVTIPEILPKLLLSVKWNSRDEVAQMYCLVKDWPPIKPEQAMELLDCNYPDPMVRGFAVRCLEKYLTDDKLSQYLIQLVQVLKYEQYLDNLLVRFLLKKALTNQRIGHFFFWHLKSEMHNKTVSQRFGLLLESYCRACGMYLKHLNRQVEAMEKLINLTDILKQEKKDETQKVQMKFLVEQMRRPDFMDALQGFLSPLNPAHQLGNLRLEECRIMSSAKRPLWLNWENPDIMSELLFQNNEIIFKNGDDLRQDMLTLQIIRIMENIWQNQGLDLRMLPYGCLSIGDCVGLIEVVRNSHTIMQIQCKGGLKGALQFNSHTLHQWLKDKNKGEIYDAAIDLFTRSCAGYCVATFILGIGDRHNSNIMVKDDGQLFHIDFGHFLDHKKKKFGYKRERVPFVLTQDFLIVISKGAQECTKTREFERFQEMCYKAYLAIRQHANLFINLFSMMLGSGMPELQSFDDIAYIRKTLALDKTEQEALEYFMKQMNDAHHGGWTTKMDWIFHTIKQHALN
Experimental: as §1

[7] = target: EGFR (Homo sapiens (Human), UniProt P00533); details: read-out: percent of control
Sequence of EGFR (P00533 25-1210): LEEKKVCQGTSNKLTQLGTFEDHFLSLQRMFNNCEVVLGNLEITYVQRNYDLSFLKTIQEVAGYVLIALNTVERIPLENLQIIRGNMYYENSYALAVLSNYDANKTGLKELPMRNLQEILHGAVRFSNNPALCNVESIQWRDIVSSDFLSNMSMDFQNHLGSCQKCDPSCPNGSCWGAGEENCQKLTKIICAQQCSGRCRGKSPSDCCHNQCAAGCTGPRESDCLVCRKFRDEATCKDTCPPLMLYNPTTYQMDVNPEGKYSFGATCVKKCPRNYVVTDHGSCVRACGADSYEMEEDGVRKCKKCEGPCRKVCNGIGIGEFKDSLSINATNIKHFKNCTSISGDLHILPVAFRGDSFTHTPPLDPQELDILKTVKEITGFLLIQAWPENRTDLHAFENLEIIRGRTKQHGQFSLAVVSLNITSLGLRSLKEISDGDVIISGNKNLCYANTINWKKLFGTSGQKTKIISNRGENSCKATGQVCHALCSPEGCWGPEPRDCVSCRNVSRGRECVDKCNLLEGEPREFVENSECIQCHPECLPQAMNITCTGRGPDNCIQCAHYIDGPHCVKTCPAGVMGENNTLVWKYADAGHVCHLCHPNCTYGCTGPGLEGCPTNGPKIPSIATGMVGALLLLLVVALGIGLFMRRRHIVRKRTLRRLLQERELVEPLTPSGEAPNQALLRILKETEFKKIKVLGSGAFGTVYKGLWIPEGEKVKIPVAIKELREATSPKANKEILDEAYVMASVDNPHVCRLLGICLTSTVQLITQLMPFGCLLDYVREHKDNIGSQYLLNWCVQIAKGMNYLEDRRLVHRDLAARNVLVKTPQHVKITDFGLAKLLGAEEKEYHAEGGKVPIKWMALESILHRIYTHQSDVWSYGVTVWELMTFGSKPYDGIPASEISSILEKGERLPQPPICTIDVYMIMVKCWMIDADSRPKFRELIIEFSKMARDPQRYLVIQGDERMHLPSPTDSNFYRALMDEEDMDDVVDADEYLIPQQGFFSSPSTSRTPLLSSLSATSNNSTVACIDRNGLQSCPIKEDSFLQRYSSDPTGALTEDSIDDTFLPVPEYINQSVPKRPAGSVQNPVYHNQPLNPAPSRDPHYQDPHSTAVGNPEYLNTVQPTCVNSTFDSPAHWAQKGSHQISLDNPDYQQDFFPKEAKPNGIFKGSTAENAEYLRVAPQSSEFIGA
Experimental: as §1

[8] = target: EPHA6 (Homo sapiens (Human), UniProt Q9UF33); details: read-out: percent of control
Sequence of EPHA6 (Q9UF33 23-1036): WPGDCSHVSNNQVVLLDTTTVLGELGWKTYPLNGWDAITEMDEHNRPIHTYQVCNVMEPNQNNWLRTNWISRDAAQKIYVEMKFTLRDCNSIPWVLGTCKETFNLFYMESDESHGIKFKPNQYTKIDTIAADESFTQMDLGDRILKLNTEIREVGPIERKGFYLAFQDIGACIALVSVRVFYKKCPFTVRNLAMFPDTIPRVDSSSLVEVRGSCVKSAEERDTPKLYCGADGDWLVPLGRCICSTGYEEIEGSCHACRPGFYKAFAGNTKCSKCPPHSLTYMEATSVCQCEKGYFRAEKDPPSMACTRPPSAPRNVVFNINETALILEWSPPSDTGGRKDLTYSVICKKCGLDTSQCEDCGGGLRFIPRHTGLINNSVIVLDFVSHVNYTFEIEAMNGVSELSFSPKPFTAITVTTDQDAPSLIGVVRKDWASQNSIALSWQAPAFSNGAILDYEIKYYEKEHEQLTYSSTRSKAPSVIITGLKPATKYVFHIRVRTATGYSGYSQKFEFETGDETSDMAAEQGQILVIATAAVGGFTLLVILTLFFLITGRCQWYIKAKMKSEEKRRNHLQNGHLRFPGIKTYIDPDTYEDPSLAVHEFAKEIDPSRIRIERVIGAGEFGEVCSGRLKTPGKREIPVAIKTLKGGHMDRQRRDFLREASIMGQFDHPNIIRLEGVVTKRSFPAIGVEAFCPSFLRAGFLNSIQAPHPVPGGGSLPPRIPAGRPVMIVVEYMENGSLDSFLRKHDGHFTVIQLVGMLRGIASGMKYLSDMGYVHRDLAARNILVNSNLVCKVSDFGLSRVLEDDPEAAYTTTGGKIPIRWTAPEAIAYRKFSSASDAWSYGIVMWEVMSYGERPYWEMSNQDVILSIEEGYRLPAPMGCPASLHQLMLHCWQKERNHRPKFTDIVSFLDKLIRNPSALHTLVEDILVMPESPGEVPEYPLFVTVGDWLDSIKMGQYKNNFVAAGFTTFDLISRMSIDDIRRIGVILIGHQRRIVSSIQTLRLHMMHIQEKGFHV
Experimental: as §1

[9] = target: PIK3CA(C420R) (Homo sapiens (Human), UniProt P42336, C420R); details: read-out: percent of control
Sequence of PIK3CA(C420R) (P42336 whole entry C420R): as the sequence (P42336 whole entry E545K) above, with C420R, K545E counted along it
Experimental: as §1

[10] = target: KIT(V559D) (Homo sapiens (Human), UniProt P10721, V559D); details: read-out: percent of control
Experimental: as §1

[11] = target: NEK2 (Homo sapiens (Human), UniProt P51955); details: read-out: percent of control
Experimental: as §1

[12] = target: PKAC-beta (Homo sapiens (Human), UniProt P22694); details: read-out: percent of control
Experimental: as §1

[13] = target: EGFR(G719C) (Homo sapiens (Human), UniProt P00533, G719C); details: read-out: percent of control
Sequence of EGFR(G719C) (P00533 25-1210 G719C): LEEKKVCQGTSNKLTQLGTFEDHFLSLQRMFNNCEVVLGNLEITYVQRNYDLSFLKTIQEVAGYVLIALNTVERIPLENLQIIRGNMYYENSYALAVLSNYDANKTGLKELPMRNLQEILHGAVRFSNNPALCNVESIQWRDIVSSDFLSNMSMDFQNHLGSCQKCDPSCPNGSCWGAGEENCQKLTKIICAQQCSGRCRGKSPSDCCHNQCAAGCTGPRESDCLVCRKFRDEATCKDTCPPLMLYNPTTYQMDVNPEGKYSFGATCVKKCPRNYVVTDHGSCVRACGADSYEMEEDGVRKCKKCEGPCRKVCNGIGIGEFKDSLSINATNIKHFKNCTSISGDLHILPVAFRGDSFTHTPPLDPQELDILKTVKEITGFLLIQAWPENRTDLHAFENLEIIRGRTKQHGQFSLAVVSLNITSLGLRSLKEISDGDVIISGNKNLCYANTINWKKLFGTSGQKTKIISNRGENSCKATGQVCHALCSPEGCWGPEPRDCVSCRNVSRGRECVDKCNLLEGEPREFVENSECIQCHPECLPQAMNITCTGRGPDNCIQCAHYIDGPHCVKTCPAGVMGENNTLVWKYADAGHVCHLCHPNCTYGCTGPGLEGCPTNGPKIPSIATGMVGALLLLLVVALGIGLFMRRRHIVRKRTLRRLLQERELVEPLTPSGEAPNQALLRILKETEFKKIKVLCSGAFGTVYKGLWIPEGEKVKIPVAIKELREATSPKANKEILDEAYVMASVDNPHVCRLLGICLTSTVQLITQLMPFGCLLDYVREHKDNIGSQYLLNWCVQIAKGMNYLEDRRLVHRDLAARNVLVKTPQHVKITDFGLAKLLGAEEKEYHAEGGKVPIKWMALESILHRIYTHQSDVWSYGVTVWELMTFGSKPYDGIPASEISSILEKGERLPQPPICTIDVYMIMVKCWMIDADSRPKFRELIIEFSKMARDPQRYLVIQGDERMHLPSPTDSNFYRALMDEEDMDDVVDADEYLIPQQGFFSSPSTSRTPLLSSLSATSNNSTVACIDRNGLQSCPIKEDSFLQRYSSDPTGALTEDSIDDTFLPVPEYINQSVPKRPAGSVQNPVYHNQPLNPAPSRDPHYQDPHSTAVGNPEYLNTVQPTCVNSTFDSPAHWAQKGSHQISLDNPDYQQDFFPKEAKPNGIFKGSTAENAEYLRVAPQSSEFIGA
Experimental: as §1

[14] = target: PAK4 (Homo sapiens (Human), UniProt O96013); details: read-out: percent of control
Experimental: as §1

[15] = target: ABL1(H396P)-phosphorylated (Homo sapiens (Human), UniProt P00519, H396P); details: read-out: percent of control
Experimental: as §1

[16] = target: RSK2 (Kin.Dom.1-N-terminal) (Homo sapiens (Human), UniProt P51812); details: read-out: percent of control
Sequence of RSK2 (Kin.Dom.1-N-terminal) (P51812 68-327): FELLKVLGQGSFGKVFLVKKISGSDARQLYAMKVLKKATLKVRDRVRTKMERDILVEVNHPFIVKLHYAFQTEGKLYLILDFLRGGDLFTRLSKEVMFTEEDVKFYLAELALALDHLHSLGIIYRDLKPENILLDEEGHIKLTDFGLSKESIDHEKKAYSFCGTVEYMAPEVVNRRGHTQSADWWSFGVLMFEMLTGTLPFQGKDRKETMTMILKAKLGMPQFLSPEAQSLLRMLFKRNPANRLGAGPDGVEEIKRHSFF
Experimental: as §1

[17] = target: MET(Y1235D) (Homo sapiens (Human), UniProt P08581, Y1235D); details: read-out: percent of control
Experimental: as §1

[18] = target: NIM1 (Homo sapiens (Human), UniProt Q8IY84); details: read-out: percent of control
Experimental: as §1

[19] = target: MST4 (Homo sapiens (Human), UniProt Q9P289); details: read-out: percent of control
Experimental: as §1

[20] = target: TAOK2 (Homo sapiens (Human), UniProt Q9UL54); details: read-out: percent of control
Experimental: as §1

[21] = target: PAK7 (Homo sapiens (Human), UniProt Q9P286); details: read-out: percent of control
Experimental: as §1

[22] = target: PLK4 (Homo sapiens (Human), UniProt O00444); details: read-out: percent of control
Experimental: as §1

[23] = target: ABL1-phosphorylated (Homo sapiens (Human), UniProt P00519); details: read-out: percent of control
Experimental: as §1

[24] = target: AKT3 (Homo sapiens (Human), UniProt Q9Y243); details: read-out: percent of control
Experimental: as §1

[25] = test system: EGFR(L747-T751del,Sins); details: 1 μM
Experimental: as §1

[26] = target: PRKG1 (Homo sapiens (Human), UniProt Q13976); details: read-out: percent of control
Experimental: as §1

[27] = target: CDKL3 (Homo sapiens (Human), UniProt Q8IVW4); details: read-out: percent of control
Experimental: as §1

[28] = target: ULK2 (Homo sapiens (Human), UniProt Q8IYT8); details: read-out: percent of control
Experimental: as §1

[29] = target: PKAC-alpha (Homo sapiens (Human), UniProt P17612); details: read-out: percent of control
Experimental: as §1

[30] = target: ZAK (Homo sapiens (Human), UniProt Q9NYL2); details: read-out: percent of control
Experimental: as §1

[31] = target: ABL1(E255K)-phosphorylated (Homo sapiens (Human), UniProt P00519, E255K); details: read-out: percent of control
Experimental: as §1

[32] = target: NEK11 (Homo sapiens (Human), UniProt Q8NG66); details: read-out: percent of control
Experimental: as §1

[33] = target: PIK3CA(H1047L) (Homo sapiens (Human), UniProt P42336, H1047L); details: read-out: percent of control
Sequence of PIK3CA(H1047L) (P42336 whole entry H1047L): as the sequence (P42336 whole entry E545K) above, with K545E, H1047L counted along it
Experimental: as §1

[34] = target: PDGFRA (Homo sapiens (Human), UniProt P16234); details: read-out: percent of control
Experimental: as §1

[35] = target: INSR (Homo sapiens (Human), UniProt P06213); details: read-out: percent of control
Experimental: as §1

[36] = target: TGFBR2 (Homo sapiens (Human), UniProt P37173); details: read-out: percent of control
Experimental: as §1

[37] = target: ABL1(Q252H)-phosphorylated (Homo sapiens (Human), UniProt P00519, Q252H); details: read-out: percent of control
Experimental: as §1

[38] = target: RIPK4 (Homo sapiens (Human), UniProt P57078); details: read-out: percent of control
Experimental: as §1

Compound | remaining binding at 1 µM [1] | percent of control [2] | remaining binding at 1 µM [3] | remaining binding at 1 µM [4] | remaining binding at 1 µM [5] | remaining binding at 1 µM [6] | remaining binding at 1 µM [7] | remaining binding at 1 µM [8] | remaining binding at 1 µM [9] | remaining binding at 1 µM [10] | remaining binding at 1 µM [11] | remaining binding at 1 µM [12] | remaining binding at 1 µM [13] | remaining binding at 1 µM [14] | remaining binding at 1 µM [15] | remaining binding at 1 µM [16] | remaining binding at 1 µM [17] | remaining binding at 1 µM [18] | remaining binding at 1 µM [19] | remaining binding at 1 µM [20] | further results
CCN1CCN(Cc2cc(NC(=O)c3ccc(C)c(-c4ccc5nc(NC(=O)C6CC6)cn5n4)c3)cc(C(F)(F)F)c2)CC1 [Compound I-2, 3-(2-(cyclopropanecarboxamido)imidazo[1,2-b]pyridazin-6-yl)-N-(3-((4-ethylpiperazin-1-yl)methyl)-5-(trifluoromethyl)phenyl)-4-methylbenzamide] | 100% | 61% | 56% | 84% | 11% | 99% | 31% | 5.2% | 85% | 0% | 84% | 92% | 53% | 96% | 0.3% | 88% | 8.7% | 99% | 92% | 8.6% | remaining binding at 1 µM [21]: 73%; remaining binding at 1 µM [22]: 81%; remaining binding at 1 µM [23]: 0.1%; remaining binding at 1 µM [24]: 8%; percent of control [25]: 29%; remaining binding at 1 µM [26]: 100%; remaining binding at 1 µM [27]: 0.4%; remaining binding at 1 µM [28]: 100%; remaining binding at 1 µM [29]: 75%; remaining binding at 1 µM [30]: 2.3%; remaining binding at 1 µM [31]: 0.5%; remaining binding at 1 µM [32]: 65%; remaining binding at 1 µM [33]: 89%; remaining binding at 1 µM [34]: 1.1%; remaining binding at 1 µM [35]: 0.85%; remaining binding at 1 µM [36]: 90%; remaining binding at 1 µM [37]: 0.35%; remaining binding at 1 µM [38]: 98%
CCN1CCN(Cc2cc(NC(=O)c3ccc(C)c(-c4ccc5nc(NC(=O)C6CC6)cn5c4)c3)cc(C(F)(F)F)c2)CC1 [Compound I-6, 3-(2-(cyclopropanecarboxamido)imidazo[1,2-a]pyridin-6-yl)-N-(3-((4-ethylpiperazin-1-yl)methyl)-5-(trifluoromethyl)phenyl)-4-methylbenzamide] | 89% | 76% | 58% | 86% | 21% | 93% | 24% | 0.75% | 95% | 0.05% | 100% | 78% | 46% | 96% | 0.25% | 78% | 8.9% | 88% | 100% | 7.6% | remaining binding at 1 µM [21]: 98%; remaining binding at 1 µM [22]: 95%; remaining binding at 1 µM [23]: 0.1%; remaining binding at 1 µM [24]: 94%; percent of control [25]: 12%; remaining binding at 1 µM [26]: 87%; remaining binding at 1 µM [27]: 0%; remaining binding at 1 µM [28]: 100%; remaining binding at 1 µM [29]: 97%; remaining binding at 1 µM [30]: 6.2%; remaining binding at 1 µM [31]: 0.65%; remaining binding at 1 µM [32]: 89%; remaining binding at 1 µM [33]: 68%; remaining binding at 1 µM [34]: 1.2%; remaining binding at 1 µM [35]: 3.2%; remaining binding at 1 µM [36]: 86%; remaining binding at 1 µM [37]: 0.6%; remaining binding at 1 µM [38]: 100%
